The compounds below were run on Avena fatua (AVEFA) (assay: Example A post-emergence herbicidal activity, glasshouse pot test). Conditions: Rate 125 g/ha, evaluated 14 or 15 days later, read-out: Post-Emergence Activity AVEFA (100=total damage to plant; 0=no damage to plant).
Assay type: in vivo
Method: (§1) Seeds of a variety of test species were sown in standard soil in pots. After cultivation for one day (pre-emergence) or after 10 days cultivation (post-emergence) under controlled conditions in a glasshouse, the plants were sprayed with an aqueous spray solution derived from the formulation of the technical active ingredient in 0.6 ml acetone and 45 ml formulation solution containing 10.6% Emulsogen EL (Registry number 61791-12-6), 42.2% N-methylpyrrolidone, 42.2% dipropylene glycol monomethyl ether (Registry number 34590-94-8) and 0.2% X-77 (Registry number 11097-66-8). The test plants were then grown in a greenhouse under optimum conditions until, 14 or 15 days later for post-emergence and 19 or 20 days for pre-emergence, the test was evaluated (100=total damage to plant; 0=no damage to plant). Alopecurus myosuroides (ALOMY), Avena fatua (AVEFA), Lolium perenne (LOLPE), Setaria faberi (SETFA), Digitaria sanguinalis (DIGSA), Echinochloa crus-galli (ECHCG)

Compared with `Cc1sc(-c2ccc(Br)cc2)nc1C1C(=O)[C@@H]2[C@H](C1=O)[C@H]1CC[C@@H]2O1` (stereo partly drawn) [Compound T28], `Cc1sc(-c2ccc(Cl)nc2)nc1C1C(=O)[C@@H]2[C@H](C1=O)[C@H]1CC[C@@H]2O1` (stereo partly drawn) [Compound T30] is lower in pest or weed control at 125 g/ha: 70% for the first, 10% for the second.

Each compound was assayed on Alopecurus myosuroides (ALOMY) in the same assay as above. Conditions: Rate 125 g/ha, evaluated 14 or 15 days later, read-out: Post-Emergence Activity ALOMY (100=total damage to plant; 0=no damage to plant).
Assay type: in vivo
Method: as §1

First: Cc1sc(-c2ccc(Br)cc2)nc1C1C(=O)[C@@H]2[C@H](C1=O)[C@H]1CC[C@@H]2O1 (stereo partly drawn) [Compound T28]
Second: Cc1sc(-c2ccc(Cl)nc2)nc1C1C(=O)[C@@H]2[C@H](C1=O)[C@H]1CC[C@@H]2O1 (stereo partly drawn) [Compound T30]
The pest or weed control at 125 g/ha of the first is higher: 70% for the first, 0% for the second.

Each compound was assayed on Lolium perenne (LOLPE) in the same assay as above. Conditions: Rate 125 g/ha, evaluated 14 or 15 days later, read-out: Post-Emergence Activity LOLPE (100=total damage to plant; 0=no damage to plant).
Assay type: in vivo
Method: as §1

Going from `Cc1sc(-c2ccc(Br)cc2)nc1C1C(=O)[C@@H]2[C@H](C1=O)[C@H]1CC[C@@H]2O1` (stereo partly drawn) [Compound T28] to `Cc1sc(-c2ccc(Cl)nc2)nc1C1C(=O)[C@@H]2[C@H](C1=O)[C@H]1CC[C@@H]2O1` (stereo partly drawn) [Compound T30], the pest or weed control at 125 g/ha falls from 50% to 20%.

What follows are compounds tested on Echinochloa crus-galli (ECHCG) in the same assay as above. Conditions: Rate 125 g/ha, evaluated 14 or 15 days later, read-out: Post-Emergence Activity ECHCG (100=total damage to plant; 0=no damage to plant).
Assay type: in vivo
Method: as §1

Compared with `Cc1sc(-c2ccc(Br)cc2)nc1C1C(=O)[C@@H]2[C@H](C1=O)[C@H]1CC[C@@H]2O1` (stereo partly drawn) [Compound T28], `Cc1sc(-c2ccc(Cl)nc2)nc1C1C(=O)[C@@H]2[C@H](C1=O)[C@H]1CC[C@@H]2O1` (stereo partly drawn) [Compound T30] is lower in pest or weed control at 125 g/ha: 100% for the first, 70% for the second.

The compounds below were run on Setaria faberi (SETFA) in the same assay as above. Conditions: Rate 125 g/ha, evaluated 14 or 15 days later, read-out: Post-Emergence Activity SETFA (100=total damage to plant; 0=no damage to plant).
Assay type: in vivo
Method: as §1

Going from `Cc1sc(-c2ccc(Br)cc2)nc1C1C(=O)[C@@H]2[C@H](C1=O)[C@H]1CC[C@@H]2O1` (stereo partly drawn) [Compound T28] to `Cc1sc(-c2ccc(Cl)nc2)nc1C1C(=O)[C@@H]2[C@H](C1=O)[C@H]1CC[C@@H]2O1` (stereo partly drawn) [Compound T30], the pest or weed control at 125 g/ha falls from 80% to 40%.

These compounds were tested on Digitaria sanguinalis (DIGSA) in the same assay as above. Conditions: Rate 125 g/ha, evaluated 14 or 15 days later, read-out: Post-Emergence Activity DIGSA (100=total damage to plant; 0=no damage to plant).
Assay type: in vivo
Method: as §1

Compared with `Cc1sc(-c2ccc(Br)cc2)nc1C1C(=O)[C@@H]2[C@H](C1=O)[C@H]1CC[C@@H]2O1` (stereo partly drawn) [Compound T28], `Cc1sc(-c2ccc(Cl)nc2)nc1C1C(=O)[C@@H]2[C@H](C1=O)[C@H]1CC[C@@H]2O1` (stereo partly drawn) [Compound T30] is lower in pest or weed control at 125 g/ha: 100% for the first, 70% for the second.

What follows are compounds tested on Avena fatua (AVEFA) (assay: Example A pre-emergence herbicidal activity, glasshouse pot test). Conditions: Rate 250 g/ha, evaluated 19 or 20 days later, read-out: Pre-Emergence Activity AVEFA (100=total damage to plant; 0=no damage to plant).
Assay type: in vivo
Method: as §1

Compared with `Cc1sc(-c2ccc(Br)cc2)nc1C1C(=O)[C@@H]2[C@H](C1=O)[C@H]1CC[C@@H]2O1` (stereo partly drawn) [Compound T28], `Cc1sc(-c2ccc(Cl)nc2)nc1C1C(=O)[C@@H]2[C@H](C1=O)[C@H]1CC[C@@H]2O1` (stereo partly drawn) [Compound T30] is lower in pest or weed control at 250 g/ha: 100% for the first, 30% for the second.

What follows are compounds tested on Alopecurus myosuroides (ALOMY) in the same assay as above. Conditions: Rate 250 g/ha, evaluated 19 or 20 days later, read-out: Pre-Emergence Activity ALOMY (100=total damage to plant; 0=no damage to plant).
Assay type: in vivo
Method: as §1

Compared with `Cc1sc(-c2ccc(Br)cc2)nc1C1C(=O)[C@@H]2[C@H](C1=O)[C@H]1CC[C@@H]2O1` (stereo partly drawn) [Compound T28], `Cc1sc(-c2ccc(Cl)nc2)nc1C1C(=O)[C@@H]2[C@H](C1=O)[C@H]1CC[C@@H]2O1` (stereo partly drawn) [Compound T30] is lower in pest or weed control at 250 g/ha: 100% for the first, 10% for the second.

Each compound was assayed on Lolium perenne (LOLPE) in the same assay as above. Conditions: Rate 250 g/ha, evaluated 19 or 20 days later, read-out: Pre-Emergence Activity LOLPE (100=total damage to plant; 0=no damage to plant).
Assay type: in vivo
Method: as §1

Going from `Cc1sc(-c2ccc(Br)cc2)nc1C1C(=O)[C@@H]2[C@H](C1=O)[C@H]1CC[C@@H]2O1` (stereo partly drawn) [Compound T28] to `Cc1sc(-c2ccc(Cl)nc2)nc1C1C(=O)[C@@H]2[C@H](C1=O)[C@H]1CC[C@@H]2O1` (stereo partly drawn) [Compound T30], the pest or weed control at 250 g/ha falls from 100% to 40%.

Each compound was assayed on Echinochloa crus-galli (ECHCG) in the same assay as above. Conditions: Rate 250 g/ha, evaluated 19 or 20 days later, read-out: Pre-Emergence Activity ECHCG (100=total damage to plant; 0=no damage to plant).
Assay type: in vivo
Method: as §1

Going from `Cc1sc(-c2ccc(Br)cc2)nc1C1C(=O)[C@@H]2[C@H](C1=O)[C@H]1CC[C@@H]2O1` (stereo partly drawn) [Compound T28] to `Cc1sc(-c2ccc(Cl)nc2)nc1C1C(=O)[C@@H]2[C@H](C1=O)[C@H]1CC[C@@H]2O1` (stereo partly drawn) [Compound T30], the pest or weed control at 250 g/ha falls from 100% to 80%.

These compounds were tested on Setaria faberi (SETFA) in the same assay as above. Conditions: Rate 250 g/ha, evaluated 19 or 20 days later, read-out: Pre-Emergence Activity SETFA (100=total damage to plant; 0=no damage to plant).
Assay type: in vivo
Method: as §1

Going from `Cc1sc(-c2ccc(Br)cc2)nc1C1C(=O)[C@@H]2[C@H](C1=O)[C@H]1CC[C@@H]2O1` (stereo partly drawn) [Compound T28] to `Cc1sc(-c2ccc(Cl)nc2)nc1C1C(=O)[C@@H]2[C@H](C1=O)[C@H]1CC[C@@H]2O1` (stereo partly drawn) [Compound T30], the pest or weed control at 250 g/ha falls from 100% to 70%.

The compounds below were run on Digitaria sanguinalis (DIGSA) in the same assay as above. Conditions: Rate 250 g/ha, evaluated 19 or 20 days later, read-out: Pre-Emergence Activity DIGSA (100=total damage to plant; 0=no damage to plant).
Assay type: in vivo
Method: as §1

Compared with `Cc1sc(-c2ccc(Br)cc2)nc1C1C(=O)[C@@H]2[C@H](C1=O)[C@H]1CC[C@@H]2O1` (stereo partly drawn) [Compound T28], `Cc1sc(-c2ccc(Cl)nc2)nc1C1C(=O)[C@@H]2[C@H](C1=O)[C@H]1CC[C@@H]2O1` (stereo partly drawn) [Compound T30] is lower in pest or weed control at 250 g/ha: 100% for the first, 60% for the second.

— patent US8530667B2, “Herbicides” (Syngenta Limited, priority 2007, dated 2013)
